The record followed here is US7018643B2, “Pesticide delivery system” (Engelhard Corporation, priority 2000, dated 2006).

In this assay the test system is Erwinia amylovora (Ea) strain AFRS-581. The experiment in a line: Fireblight blossom infection on potted 'Rome' apple trees inoculated with Erwinia amylovora, greenhouse. The format is in vivo. Particulars: 'Rome' apple blossoms sprayed with 10^8 CFU Ea, treated about 1 hour later, scored after 7 days; PM 3% weight by volume; copper hydroxide 0.5 g/l; Blight Ban 1 g/l; streptomycin 0.5 g/l. As to the method:
The enhanced effect of reducing fireblight in apple trees with the pesticide delivery system of the present invention containing bactericides is examined and compared to conventional pesticides.
Experiments are conducted on potted trees of ‘Rome’ apple in a naturally illuminated greenhouse. When about 80% of the blooms are open, open blossoms are sprayed to drip with 10^8 CFU of Erwinia amylovora (Ea) strain AFRS-581. After drying for about 1 hour, each the following treatments are applied to six of the infected trees. Slurries containing particulate materials (PM) (3% weight by volume), water and copper hydroxide at 0.5 g/l (Copper Count N from Mineral Research Development Co., Charlotte, N.C., a bactericide), Blight Ban at 1 g/l (from Plant Health Technologies, Boise, Id., a microbial bactericide), or streptomycin at 0.5 g/l (from Novartis Crop Protection Inc., Greensboro, N.C., an antibiotic); and slurries containing PM (3% weight by volume) and water; and mixtures of water and copper hydroxide at 0.5 g/l, Blight Ban at 1 g/l, or streptomycin at 0.5 g/l are applied to the apple trees. […]
After 7 days, blossom necrosis symptoms are present and recorded. Disease data are expressed as percentage of blossom infect rate.

For `[Cu+2].[OH-].[OH-]` [copper hydroxide], the “% Blossom Infection” value was found to be 87.1%.
Under `[H]/N=C(/N)N[C@H]1[C@H](O)[C@@H](O)[C@H](O[C@@H]2O[C@@H](C)[C@](O)(C=O)[C@H]2O[C@@H]2O[C@@H](CO)[C@H](O)[C@@H](O)[C@@H]2NC)[C@@H](N/C(N)=N\[H])[C@@H]1O` [streptomycin] stands 83.3%.
